From PubChem BioAssay (NCI)
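A five-concentration, 48-hour dose response in 96-well plates underlies each endpoint, interpolated linearly between surrounding concentrations. TGI is the concentration that stops growth completely.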

Key:
Test in all cases: NCI anticancer screen, dose series, 48 h
[1] = system: SK-MEL-2 melanoma
[2] = system: CAKI-1 renal
[3] = system: SN12C renal
[4] = system: TK-10 renal
[5] = system: SF-268 CNS
[6] = system: OVCAR-8 ovarian
[7] = system: HL-60(TB) leukemia
[8] = system: NCI-H226 lung
[9] = system: MCF7 breast
[10] = system: UACC-62 melanoma
[11] = system: LOX IMVI melanoma
[12] = system: SF-295 CNS
[13] = system: MALME-3M melanoma

Row | Compound | TGI [1] [µM] | TGI [2] [µM] | TGI [3] [µM] | TGI [4] [µM] | TGI [5] [µM] | TGI [6] [µM] | TGI [7] [µM] | TGI [8] [µM] | TGI [9] [µM] | TGI [10] [µM] | TGI [11] [µM] | TGI [12] [µM] | TGI [13] [µM]
1 | COc1cccc(/C=C\c2ccc(O)cc2)c1 | 68.8 | > 84.1 | > 68.3 | > 100 | > 96.7 | 56.2 | 2.92 | > 88.8 | > 100 | > 100 | 41.2 | > 100 | 65.9
2 | COc1ccc(/C=C/C(=O)c2ccc(OC(=O)/C=C/c3ccccc3)cc2)cc1 | > 100 | > 69.2 | > 69.7 | > 100 | > 68.1 | > 83.2 | 33.7 | > 100 | > 100 | > 63.7 | > 100 | > 64 | > 100
3 | O=c1oc2ccc3ccccc3c2cc1-c1nc2ccc([N+](=O)[O-])cc2o1 | > 100 | > 91.4 | > 100 | > 78.6 | > 90.2 | > 100 | > 100 | > 100 | > 31.4 | > 100 | > 91.3 | > 49.5 | > 100
4 | O=c1c2c(F)c(F)c(F)c(F)c2sc2nccn12 | 38.5 | 33.3 | 33.3 | 32.8 | 36.2 | 44.8 | 4.14 | 52.3 | 37.9 | 31.8 | 26.7 | 36.3 | 35.4
5 | O=C1C=CC2(C=C1)C[C@H](NC(=O)OCc1ccccc1)C(=O)O2 | 40 | 34.8 | 32.7 | 32.4 | 32.3 | 31.4 | 7.58 | > 86.7 | 25.1 | 31.9 | 31.8 | 49.5 | 26.6
6 | Cc1c(F)c(NC(=O)CN(C)C)c2c(=O)cc(-c3ccc(NC(=O)CN(C)C)c(F)c3)oc2c1F | 37.1 | 23.1 | 36.3 | 23.4 | 38.3 | 37.5 | 35.9 | 29.2 | 28.3 | 34.8 | 30.9 | 28.9 | 45.9
